Assays:
[1] = test system: Cyclin D3; assay: Immunoblot of cyclin D3 protein levels in KMM1 cells; format: cell-based, human; conditions: 48 hours; for effect on cyclin D3 levels: KMM1, 1, 5 and 25 μM; for cyclin D3 protein levels in comparison with CAPE: KMM1, 25 μM
[2] = test system: KMM1 myeloma cells; assay: KMM1 myeloma cell growth inhibition, PrestoBlue cell viability assay, 48 hours; format: cell-based, human
Experimental: Human myeloma cell line KMM1 was purchased from the Japanese Collection of Research Bioresources Cell Bank (JCBR, Japan). KMS-11 cells were a kind gift from Dr. David Hoskin's Laboratory, […], Canada. Myeloma cells were grown in RPMI-1640 media (Sigma Aldrich, USA) supplemented with 5% heat inactivated FBS (Gibco), […] L-glutamine (Gibco), 5 mM HEPES and 1% Penstrep (Sigma Aldrich, USA) in a 5% CO2 incubator at 37° C. Cell lines were tested regularly for mycoplasma and kept free of contamination. All other chemicals were obtained from Sigma Aldrich, USA. Myeloma cells were seeded in 96 well plates at a density of 10^4 cells/well in appropriate cell media. Following overnight incubation at 37° C., MM cells were treated for 48 hours with varying concentrations of CAPE and its closely related analogues and cell viability was determined by PrestoBlue assay (Invitrogen, ON) according to the manufacturer's protocol. […] Myeloma cell growth inhibition was determined by presto blue cell viability assay (FIG. 2). […] At 5 μM, GL8 inhibited 49.9±2.9%, while CAPE inhibited the growth of 7.3±1% myeloma cells only (P=0.000017); At 10 μM, GL8 inhibited 62.3±2%, while CAPE inhibited the growth of 25.6±5% (P=0.00026).

[3] = test system: OCI-Ly3 human lymphoma cell line; assay: Lymphoma cell growth inhibition in lenalidomide-insensitive OCI-Ly3; format: cell-based
[4] = test system: IRF4; assay: Immunoblot of IRF4 in lenalidomide-responsive KMS-11 cells; format: cell-based, human; conditions: KMS-11 (lenalidomide responsive)
From the text: (§1) Total protein extract was obtained from KMM1 and KMS-11 cells treated with CAPE and its closely related analogues and concentration of proteins determined by the Bicinchoninic acid assay (BCA) method. Protein samples were then fractionated by sodium dodecyl sulfate polyacrylamide gel electrophoresis (SDS PAGE) and transferred electrophoretically to a polyvinylidene (PVDF) membrane. Blots were then blocked with 5% nonfat dry milk in tris(hydroxymethyl)aminomethane-buffered saline-tween (TBS-T) for 1 hour and then incubated overnight with goat polyclonal anti-IRF4 antibody; rabbit polyclonal anti-OCT2 antibody, rabbit polyclonal anti-Bob1 antibody (Santa Cruz Biotechnology, Santa Cruz, CA); mouse polyclonal anti-Cyclin D3 (Cell Signaling Technology, Whitby, ON) and mouse monoclonal anti-beta tubulin antibody (Abcam, Cambridge, MA). Detection of protein in PVDF membrane was performed using the chemiluminescence kit (Bio-Rad Laboratories, Hercules, CA).

[5] = test system: MMIR human myeloma cell line; assay: Cell growth inhibition effect of lenalidomide on MMIR myeloma cells; format: cell-based
[6] = test system: MM1S human myeloma cell line; assay: Cell growth inhibition effect of lenalidomide on MM1S myeloma cells; format: cell-based
[7] = test system: IRF4; assay: Immunoblot of IRF4 protein expression in KMM1 cells
From the text: as §1
KMM1 cells were treated with 1, 5 and 25 μM of CAPE and its closely related analogues for 48 hours, cells were then harvested and proteins were extracted. 15 μg protein lysates were separated on a 4-20% gradient gel and then transferred to the PVDF membrane. The membrane was probed for IRF4 protein expression using affinity purified goat polyclonal antibody. Beta-actin was used as protein loading control.

[8] = test system: KMM1 lenalidomide non-responsive myeloma cell line; assay: Combination treatment of lenalidomide and CAPE analogues, KMM1 cell viability after 72 hr; conditions: Homo sapiens
[9] = test system: cleaved caspase-3; assay: Immunoblot of cleaved caspase-3 in KMM1 cells; format: cell-based, human; conditions: KMM1, 25 μM, 48 hr
Experimental: Furthermore, a noticeable increase in cleaved caspase levels in KMM1 cells treated with 25 μM GL8 and MT30 was observed. In comparison with 25 μM CAPE, a 3.2 fold increase in cleaved caspase-3 by MT30 and a 2.9 fold increase by 25 μM of GL8 were observed (FIG. 5).

[10] = test system: OCT2; assay: Immunoblot of OCT2 protein levels in KMM1 cells; format: cell-based, human; conditions: KMM1, 25 μM, 48 hours
[11] = test system: Bob-1; assay: Immunoblot of Bob-1 protein levels in KMM1 cells; format: cell-based, human; conditions: KMM1, 25 μM, 48 hours
[12] = test system: normal human bone marrow mononuclear cells; assay: Cell viability of normal mononuclear cells after 48 hr, Prestoblue cell viability assay; format: cell-based; conditions: for Normal Bone Marrow Mononuclear Cell Viability (%) Average: 48 hr; for inhibition of cell growth of normal human bone marrow cells (in words): 1, 10, 25, 50 μM, 48 hrs
From the text: Cell Viability of Normal Mononuclear Cells after 48 hr CAPE and GL8 Treatment, Determined by Prestoblue Cell Viability Assay.

[13] = test system: Ikaros; assay: Immunoblot of cereblon pathway protein Ikaros in KMM1 cells; format: cell-based, human; conditions: KMM1 (lenalidomide resistant)
From the text: as §1

[14] = test system: Ikaros; assay: Immunoblot of Ikaros in lenalidomide-responsive KMS-11 cells; format: cell-based, human; conditions: KMS-11, 50 μM
From the text: as §1

[15] = KMM-1, 72 h, read-out: % KMM1 Cell viability after 72 hr Lenalidomide Treatment
[16] = KMM-1, read-out: % KMM1 Cell viability, single compound treatment

SMILES: O=C(O)/C=C/c1ccc(O)c(O)c1 [CA, Caffeic acid]
- effect on cyclin D3 levels [1]: did not have any effect

SMILES: Nc1cccc2c1CN(C1CCC(=O)NC1=O)C2=O (stereo not shown) [Lenalidomide]
- cell growth inhibition effect (sensitivity in words) ([2]; KMM1): insensitive
- cell growth inhibition effect (sensitivity in words) ([3]; OCI-Ly3): insensitive
- effect on IRF4 protein level ([4]; 10 μM, 25 μM and 50 μM): did not alter
- cell growth inhibition effect (sensitivity in words) [5]: moderately sensitive
- cell growth inhibition effect (sensitivity in words) [6]: sensitive
- effect on IRF4 protein level ([7]; KMM1 (lenalidomide resistant), 10 μM, 25 μM and 50 μM): Neither the clinically relevant concentration of 10 μM lenalidomide (Greenberg et al., 2013) nor higher concentrations of lenalidomide (25 μM and 50 μM) tested had any effect
- viability at 0.0001 µM [8, 15]: 99%
- viability at 0.0005 µM [8, 15]: 97%
- viability at 0.001 µM [8, 15]: 97%
- viability at 0.005 µM [8, 15]: 96%
- viability at 0.01 µM [8, 15]: 97%
- viability at 0.1 µM [8, 15]: 85%
- viability at 1 µM [8, 15]: 80%
- viability at 10 µM [8, 15]: 80%
- viability at 100 µM [8, 15]: 78%

SMILES: O=C(/C=C/c1ccc(O)c(O)c1)OCCC1CCCCC1 [MT30]
- myeloma cell growth inhibition (in words) ([2]; KMM1): significant myeloma cell growth inhibition
- increase in cleaved caspase-3 in comparison with 25 μM CAPE [9]: 3.2 fold
- cyclin D3 protein levels in comparison with CAPE [1]: decreased cyclin D3 protein levels dramatically
- OCT2 protein levels [10]: downregulated
- Bob-1 protein levels [11]: downregulated
- IRF4 protein expression (in words) ([7]; KMM1, 25 μM, 48 hours): significantly down regulated

SMILES: O=C(/C=C/c1ccc(O)c(O)c1)OCCc1ccccc1 [CAPE, Caffeic acid (3,4-dihydroxycinnamic acid) phenethyl ester]
- inhibition at 1 µM ([2]; Homo sapiens, KMM-1, KMM1, 48 hours, 1 μM, 5 μM and 10 μM): < 30%
- inhibition at 25 µM ([2]; Homo sapiens, KMM-1, KMM1, 48 hours, 25 μM): 38.7 ± 4%
- inhibition at 50 µM ([2]; Homo sapiens, KMM-1, KMM1, 48 hours, 50 μM): 59.6 ± 2%
- inhibition at 5 µM ([3]; Homo sapiens, OCI-Ly3, 5 μM): 7.3 ± 1%
- inhibition at 10 µM ([3]; Homo sapiens, OCI-Ly3, 10 μM): 25.6 ± 5%
- OCT2 protein levels [10]: downregulated
- Bob-1 protein levels [11]: downregulated
- Normal Bone Marrow Mononuclear Cell Viability (%) Average ([12]; 1 μM): 99.3%
- Normal Bone Marrow Mononuclear Cell Viability (%) Average ([12]; 10 μM): 103.4%
- Normal Bone Marrow Mononuclear Cell Viability (%) Average ([12]; 25 μM): 117.7%
- Normal Bone Marrow Mononuclear Cell Viability (%) Average ([12]; 50 μM): 122.6%
- inhibition of cell growth of normal human bone marrow cells (in words) [12]: neither GL8 nor CAPE at the following concentrations inhibited
- decrease of IRF4 protein expression level ([7]; KMM1, 25 μM, 48 hours): 26%
- viability at 5 µM [8, 16]: 51.8%
- viability at 25 µM [8, 16]: 36%

SMILES: O=C(/C=C/c1ccc(O)c(O)c1)OCCCc1ccccc1 [GL8]
- myeloma cell growth inhibition (in words) ([2]; KMM1): significant myeloma cell growth inhibition
- myeloma cell growth inhibition ([2]; KMM1, 48 hours, 25 μM): 58.3±13%
- myeloma cell growth inhibition ([2]; KMM1, 48 hours, 50 μM): 80±5%
- lymphoma cell growth inhibition ([3]; OCI-Ly3, 5 μM): 49.9±2.9%
- lymphoma cell growth inhibition ([3]; OCI-Ly3, 10 μM): 62.3±2%
- increase in cleaved caspase-3 in comparison with 25 μM CAPE [9]: 2.9 fold
- cyclin D3 protein levels in comparison with CAPE [1]: decreased cyclin D3 protein levels dramatically
- effect on cyclin D3 levels [1]: decrease cyclin D3 levels in a dose-dependent manner
- OCT2 protein levels [10]: downregulated
- Bob-1 protein levels [11]: downregulated
- levels of Ikaros in comparison with 50 μM CAPE [13]: significantly decreased
- levels of IRF4 in comparison with 50 μM CAPE ([4]; 50 μM): significantly decreased
- levels of Ikaros in comparison with 50 μM CAPE [14]: significantly decreased
- Normal Bone Marrow Mononuclear Cell Viability (%) Average ([12]; 1 μM): 110.0%
- Normal Bone Marrow Mononuclear Cell Viability (%) Average ([12]; 10 μM): 109.2%
- Normal Bone Marrow Mononuclear Cell Viability (%) Average ([12]; 25 μM): 110.3%
- Normal Bone Marrow Mononuclear Cell Viability (%) Average ([12]; 50 μM): 101.9%
- inhibition of cell growth of normal human bone marrow cells (in words) [12]: neither GL8 nor CAPE at the following concentrations inhibited
- levels of IRF4 in comparison with 50 μM CAPE ([7]; KMM1 (lenalidomide resistant), 50 μM): significantly decreased
- decrease of IRF4 protein expression level ([7]; KMM1, 25 μM, 48 hours): 62%

SMILES: O=C(/C=C/c1ccc(O)c(O)c1)NCCc1ccccc1 [D19]
- effect on cyclin D3 levels [1]: did not have any effect
